Reference: paper PMC8154419, “Druggable Hot Spots in the Schistosomiasis Cathepsin B1 Target Identified by Functional and Binding Mode Analysis of Potent Vinyl Sulfone Inhibitors” (ACS Infectious Diseases, 2020)
Values joined by “and” are separate entries in the source; they are usually repeats but may differ in a detail not shown here. Identical values can stand only once. Like-named read-outs stand apart in the source and are kept apart here.

Key:
[1] = target: T1, SmCB1 (Schistosoma mansoni, UniProt Q8MNY2, T185A/T300A); set-up: method as in PMID 21832058; details: reference compounds; SmCB1, Cbz–Phe–Arg–AMC, pH 5.5; read-out: Inhibition IC50; cited from earlier work
T1 sequence (Q8MNY2 87-340 T185A/T300A): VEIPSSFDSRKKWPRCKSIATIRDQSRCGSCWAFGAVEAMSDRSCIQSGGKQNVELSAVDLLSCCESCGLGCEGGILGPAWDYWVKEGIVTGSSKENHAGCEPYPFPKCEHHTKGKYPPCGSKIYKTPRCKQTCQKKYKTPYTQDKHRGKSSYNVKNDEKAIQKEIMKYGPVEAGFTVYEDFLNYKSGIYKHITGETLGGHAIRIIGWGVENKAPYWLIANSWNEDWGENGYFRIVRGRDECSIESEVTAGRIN

[2] = test system: S. mansoni newly transformed schistosomula (NTS); assay: Parasite assay and phenotype scoring of newly transformed schistosomula; format: cell-based, Schistosoma mansoni; details: score 0 to 4, 4 most severe
Description: The NTS were exposed to 1 and 10 μM inhibitors, and the resulting phenotypes were graded 0 through 4 from the least to the most severe (Figure 4B).[25],[26] […] The investigated inhibitors were also tested for their cytotoxicity against four human cell lines over 72 h.
Newly transformed schistosomula (NTS) of S. mansoni were prepared by mechanically transforming infective larvae (cercariae) as described previously.[67] NTS (200–300 parasites) were incubated in 200 μL of Basch Medium 169[68] containing 5% heat-inactivated fetal bovine serum, 100 U/mL penicillin, and 100 μg/mL streptomycin at 5% CO2 and 37 °C.[67],[69] […] We use single word or phrase “descriptors”[35] to record changes in movement, shape, and translucence (Figure S2).
Figure S2. Antischistosomal activity, cytotoxicity, and plasma stability of selected vinyl sulfone inhibitors. A. Induction of phenotypic alterations by the inhibitors was determined with newly transformed schistosomula (NTS) of S. mansoni. The inhibitors were tested at 1 and 10 µM concentrations for 24, 48 and 72 h, and the resulting phenotypes are shown as descriptor s .2 B. Example […]
captured using a Zeiss Axiovert 40 C inverted microscope (10x objective) and a Zeiss AxioCam MRc digital camera controlled by AxioVision 40 (v. 4.8.1.0) software. Scale bar = 0.2 mm. C. […]

[3] = In vitro plasma stability; format: in vitro ADME; details: 5 μM inhibitor, pooled human plasma, 30 min, 37°C
Description: Finally, we evaluated the metabolic stability of the inhibitors in human plasma in vitro. The stability was expressed as the percentage of parental compound remaining in plasma after 30 min of incubation.
Figure S2. Antischistosomal activity, cytotoxicity, and plasma stability of selected vinyl sulfone inhibitors. A. Induction of phenotypic alterations by the inhibitors was determined with newly transformed schistosomula (NTS) of S. mansoni. The inhibitors were tested at 1 and 10 µM concentrations for 24, 48 and 72 h, and the resulting phenotypes are shown as descriptor s .2 B. Example of an inhibitor-induced phenotype in NTS of S. mansoni versus untreated controls. Images were captured using a Zeiss Axiovert 40 C inverted microscope (10x objective) and a Zeiss AxioCam MRc digital camera controlled by AxioVision 40 (v. 4.8.1.0) software. Scale bar = 0.2 mm. C. Cytotoxicity of the inhibitors towards four human cell lines expressed as % viability vs. untreated cells. Cells were treated with the indicated concentration of the compounds for 72 h and assayed by means of the XTT test (as described previously3). Standard deviation values were within 10% of the mean of tetraplicates. D. In vitro plasma stability was determined for 5 µM inhibitors incubated with pooled human plasma (Biowest) for 30 min at 37°C. The samples were deproteinized by acetonitrile a nd quantified by LC-MS (Exion LC AD/QTrap 6500+, AB Sciex). Data are expressed as a percentage of the remaining parent compound after 30 min incubation; standard deviations of the means ar e gi ve n for duplicate measurements.
(1 picture or pasted object on this page, not shown here)

[4] = target: T1, SmCB1; assay: SmCB1 kinetic inhibition assay (IC50) with fluorogenic substrate Cbz–Phe–Arg–AMC; format: biochemical; details: recombinant SmCB1, Cbz–Phe–Arg–AMC, pH 5.5; mean ± SE, triplicate; n.i.: no significant inhibition at 100 μM
Excerpt: Thirty-four peptidomimetic vinyl sulfone analogs (including vinyl sulfonamides and vinyl sulfonate esters) were explored as potential inhibitors of SmCB1 to infer the structural requirements of the inhibitor-binding subsites in the enzyme active site cleft. The compound scaffold is defined by positions P3 through P1′, and the substitutions were selected to provide a high diversity at P2 and P1′ (Table 1). These two positions were recently reported to display large differences in the subsite interaction energy in response to their structural modifications.[10] The compounds were screened in vitro against recombinant SmCB1, and their IC50 values were determined using a kinetic inhibition assay with the fluorogenic substrate Cbz–Phe–Arg–AMC.
(§1) Inhibition measurements were performed in triplicates in 96-well microplates (100 μL assay volume) at 37 °C. […] The kinetics of product release was continuously monitored in an Infinite M1000 microplate reader (Tecan) at excitation and emission wavelengths of 360 and 465 nm, respectively. The IC50 values were determined by nonlinear regression using GraFit software. To determine the inhibition constant k2nd, the enzyme (40 pM SmCB1 or 60 pM HuCB) was added to a mixture of the fluorogenic substrate Cbz–Phe–Arg–AMC (20 μM for SmCB1 and 33 μM for HuCB) and an inhibitor (0–1 μM) in the assay buffer under assay conditions as above. The hydrolysis of substrate was monitored for 30 min in a microplate reader as described above. An observed rate constant, kobs, was calculated at each inhibitor concentration by fitting the progress curve to the equation P = vi/kobs(1 – e^–kobst), where P is the product formation, vi is the initial velocity, and t is the reaction time. For both enzymes, kobs varied linearly with the inhibitor concentration showing that the dependence of kobs on the inhibitor concentration is nonsaturating. […] The second order rate constant, k2nd, was determined by fitting to the linear equation kobs = (k2nd[I])/(1 + [S]/KM), where [S] is the substrate concentration, [I] is the inhibitor concentration, and KM is the Michaelis–Menten constant. KM values determined for SmCB1 and HuCB were 25 and 38 μM, respectively.

[5] = target: T1, SmCB1; assay: biochemical; format: biochemical; details: pH 5.5, read-out: second order rate constant k2nd SmCB1
Description: (§2) (A) Sensitivity of SmCB1 and its human ortholog cathepsin B (HuCB) to inhibitors. The second order rate constants were measured in a kinetic activity assay with the fluorogenic peptide substrate Cbz–Phe–Arg–AMC at pH 5.5. […] Resulting phenotypes observed at three time points were graded by the severity score ranging from 0 to 4, with 4 being the most severe (see Figure S2A,B).
as §1, with “above.” for “above. An observed rate constant, kobs, was calculated at each inhibitor concentration by fitting the progress curve to the equation P = vi/kobs(1 – e^–kobst), where P is the product formation, vi is the initial velocity, and t is the reaction time. For both enzymes, kobs varied linearly with the inhibitor concentration showing that the dependence of kobs on the inhibitor concentration is nonsaturating.”, “constant.” for “constant. KM values determined for SmCB1 and HuCB were 25 and 38 μM, respectively.”

[6] = test system: SmCB1; assay: biochemical; format: biochemical, Schistosoma mansoni; details: k2nd for SmCB1 to k2nd for human cathepsin B
Description: as §2
as §1, with “above.” for “above. An observed rate constant, kobs, was calculated at each inhibitor concentration by fitting the progress curve to the equation P = vi/kobs(1 – e^–kobst), where P is the product formation, vi is the initial velocity, and t is the reaction time. For both enzymes, kobs varied linearly with the inhibitor concentration showing that the dependence of kobs on the inhibitor concentration is nonsaturating.”, “constant.” for “constant. KM values determined for SmCB1 and HuCB were 25 and 38 μM, respectively.”

[7] = target: T2, human cathepsin B (HuCB) (Homo sapiens, UniProt P07858); assay: Second order rate constant (k2nd) of inhibition, human cathepsin B; format: biochemical; details: for second order rate constant k2nd HuCB: Cbz–Phe–Arg–AMC, pH 5.5, mean of triplicate; for kinact/KI: pH 5.5, read-out: second order rate constant k2nd HuCB
T2 construct: purchased Calbiochem
Description: as §2
as §1, with “above.” for “above. An observed rate constant, kobs, was calculated at each inhibitor concentration by fitting the progress curve to the equation P = vi/kobs(1 – e^–kobst), where P is the product formation, vi is the initial velocity, and t is the reaction time. For both enzymes, kobs varied linearly with the inhibitor concentration showing that the dependence of kobs on the inhibitor concentration is nonsaturating.”, “constant.” for “constant. KM values determined for SmCB1 and HuCB were 25 and 38 μM, respectively.”

Structure (SMILES)	IC50 [1] [nM]	severity score ([2]; 1 μM, 24 hours)	severity score ([2]; 1 μM, 48 hours)	severity score ([2]; 1 μM, 72 hours)	severity score ([2]; 10 μM, 24 hours)	severity score ([2]; 10 μM, 48 hours)	severity score ([2]; 10 μM, 72 hours)	percentage of remaining parent compound in plasma [3] [%]	IC50 [4]	kinact/KI [5] [M⁻¹ s⁻¹]	selectivity ratio [6]	second order rate constant k2nd HuCB [7]	kinact/KI [7] [M⁻¹ s⁻¹]
CC(C)C[C@H](NC(=O)N1CCOCC1)C(=O)N[C@H](/C=C/S(=O)(=O)c1ccccc1)CCc1ccccc1 [K11017, morpholino urea-leucyl-homophenylalanyl-vinylsulfone-phenyl]	1.71 ± 0.13	–	–	–	–	–	–	–	–	–	–	–	–
CN1CCN(C(=O)N[C@@H](Cc2ccccc2)C(=O)N[C@H](/C=C/S(=O)(=O)c2ccccc2)CCc2ccccc2)CC1 [K11777, N-methylpiperazine-phenylalanyl-homophenylalanyl-vinylsulfone-phenyl, reference compound]	2.09 ± 0.08	0	0	3	0	1	3	88	–	–	–	–	–
CN1CCN(C(=O)N[C@@H](Cc2ccccc2)C(=O)N[C@H](/C=C/S(=O)(=O)NOCc2ccccc2)CCc2ccccc2)CC1 [WRR-286]	–	0	0	4	0	4	4	107	~0.6 nM and 0.61 nM	200000	about 6.0	33 618 M^–1 s^–1	33600
CCOC(=O)C1CCN(C(=O)N[C@@H](Cc2ccc(O)cc2)C(=O)N[C@H](/C=C/S(=O)(=O)c2ccccn2)CCc2ccccc2)CC1 [WRR-391]	–	0	0	0	0	0	4	54	~0.2 nM and 0.24 nM	208000	~1.4	152 806 M^–1 s^–1	153000
